The values that follow are results of earlier work, collected in patent US20250223207A1, “COMPOSITIONS OF SUPPORTED METAL CATALYSTS AND METHODS THEREOF” (THE TEXAS A&M UNIVERSITY SYSTEM, priority 2024, published 2025).

Usually pKa stands for the negative logarithm of the acid dissociation constant.

The conditions of the first data set: human bodies, oral.
As for `COc1cc(Cc2cnc(N)nc2N)cc(OC)c1OC` [TMP, Trimethoprim], the “Fraction of orally taken dose metabolized” value was 22.5%.

For the next data set the following is noted: PFAS compounds, Table 7.
`O=C(O)C(F)(F)C(F)(F)C(F)(F)C(F)(F)C(F)(F)C(F)(F)C(F)(F)F` [PFOA, perfluorooctanoic acid]: the pKa is 1.30.
As to `O=S(=O)(O)C(F)(F)C(F)(F)C(F)(F)C(F)(F)C(F)(F)C(F)(F)F` [PFHxS, perfluorohexanesulfonic acid], the pKa was −3.32.
Consider `O=S(=O)(O)C(F)(F)C(F)(F)C(F)(F)C(F)(F)F` [PFBS, perfluorobutane sulfonic acid], for which the pKa is on record as −3.31.
Consider `O=C(O)C(F)(OC(F)(F)C(F)(F)C(F)(F)F)C(F)(F)F` (stereo not shown) [HFPO-DA, hexafluoropropylene oxide dimer acid], for which the pKa is on record as 2.84.
As to `O=S(=O)(O)C(F)(F)C(F)(F)C(F)(F)C(F)(F)C(F)(F)C(F)(F)C(F)(F)C(F)(F)F` [PFOS, perfluoro octane sulfonic acid], the pKa entry was “=<1.0”.
For the compound `O=C(O)C(F)(F)C(F)(F)C(F)(F)C(F)(F)C(F)(F)C(F)(F)C(F)(F)C(F)(F)F` [PFNA, perfluorononanoic acid], the pKa was −0.21.
